Legend:
Type in all cases: cell-based
MOLM-13 cells = assay: Cell viability assay (CELLTITER-GLO), MOLM-13 cells; conditions: Homo sapiens, MOLM-13, 72 h; Table 2; compound at 10 μM, 3 days; read-out: Effect on MOLM-13 cell viability (% DMSO)
Procedure: (§1) MOLM-13 cells, MV-4-11 cells, H23, and H358 cells were independently cultured in RPMI 1640 media supplemented with 10% fetal bovine serum, streptomycin and penicillin. The cells were plated in white walled 96-well plates at 4,000 cells/well. The cells were incubated in DMSO (control) or a compound for 3 days at 37° C. under 5% CO2. A CELLTITER-GLO® reagent (100 μL) was then added to each well. After a 10 min incubation with shaking, luminescence was measured using an ENVISION® multimode plate reader.
In Tables 1 and 2, each compound was tested at 10 μM; and in Table 3, each compound was tested at 1 μM. In Tables 1 to 3, the cell viability values as % DMSO are reported as “A,” “B,” “C,” or “D;” where “A” represents a % viability value of less than 10%; “B” represents a % viability value of no less than 10% and less than 25%; “C” represents a % viability value of no less than 25% and less than 50%; and “D” represents a % viability value of no less than 50%. Compound A is […]

H358 cells = assay: Cell viability assay (CELLTITER-GLO), H358 cells; conditions: Table 4; 3 days
Procedure: as §1
In Tables 1 and 2, each compound was tested at 10 μM; and in Table 3, each compound was tested at 1 μM. In Tables 1 to 3, the cell viability values as % DMSO are reported as “A,” “B,” “C,” or “D;” where “A” represents a % viability value of less than 10%; “B” represents a % viability value of no less than 10% and less than 25%; “C” represents a % viability value of no less than 25% and less than 50%; and “D” represents a % viability value of no less than 50%. Compound A is
(§2) IC50 values are summarized in Table 4, where “A” represents an IC50 value of no greater than 1 μM, “B” represents an IC50 value of greater than 1 μM and no greater than 5 μM, “C” represents an IC50 value of greater than 5 μM and no greater than 10 μM, and “D” represents an IC50 value of greater than 10 μM.

H23 cells = assay: Cell viability assay (CELLTITER-GLO), H23 cells; conditions: Table 4; 3 days
Procedure: as §1, §2

Structure (SMILES) | viability at 10 µM (MOLM-13 cells) [%] | Inhibition of H358 cells, IC50 (class) (H358 cells) | Inhibition of H23 cells, IC50 (class) (H23 cells)
CCC(=O)N1CCN(c2ncnc3c(Cl)c(-c4c(F)cccc4OCCCCCCCCN4CCC(c5cc(F)cc6c5CN(C5CCC(=O)NC5=O)C6=O)CC4)c(F)cc23)CC1 (stereo not shown) [Compound 20, 3-(4-(1-(8-(2-(8-Chloro-6-fluoro-4-(4-propionylpiperazin-1-yl)quinazolin-7-yl)-3-fluorophenoxy)octyl)piperidin-4-yl)-6-fluoro-1-oxoisoindolin-2-yl)piperidine-2,6-dione] | < 10 | B′ | B′
C=CC(=O)N1CCN(c2ncnc3c(F)c(-c4c(F)cccc4OCCOCCOCCOCCNc4cccc5c4C(=O)N(C4CCC(=O)NC4=O)C5=O)c(Cl)cc23)CC1 (stereo not shown) [Compound 23, 4-((2-(2-(2-(2-(2-(4-(4-Acryloylpiperazin-1-yl)-6-chloro-8-fluoroquinazolin-7-yl)-3-fluorophenoxy)ethoxy)ethoxy)ethoxy)ethyl)amino)-2-(2,6-dioxopiperidin-3-yl)isoindoline-1,3-dione] | < 10 | B′ | B′
C=CC(=O)N1CCN(c2ncnc3c(F)c(-c4c(F)cccc4OCCCCCCCNCc4ccc(OCc5scc6c5CN([C@H]5CCC(=O)NC5=O)C6=O)cc4)c(Cl)cc23)CC1 [Compound 24, (3S)-3-(1-((4-(((7-(2-(4-(4-Acryloylpiperazin-1-yl)-6-chloro-8-fluoroquinazolin-7-yl)-3-fluorophenoxy)heptyl)amino)methyl)phenoxy)methyl)-4-oxo-4H-thieno[3,4-c]pyrrol-5(6H)-yl)piperidine-2,6-dione] | < 10 | B′ | B′
C=CC(=O)N1CCN(c2ncnc3c(F)c(-c4cc(OCCOCCOCCC(=O)NCCNc5cccc6c5CN(C5CCC(=O)NC5=O)C6=O)ccc4F)c(Cl)cc23)CC1 (stereo not shown) [Compound 38, 3-(2-(2-(3-(4-(4-Acryloylpiperazin-1-yl)-6-chloro-8-fluoroquinazolin-7-yl)-4-fluorophenoxy)ethoxy)ethoxy)-N-(2-((2-(2,6-dioxopiperidin-3-yl)-1-oxoisoindolin-4-yl)amino)ethyl)propanamide] | ≥ 50 | D′ | D′
C=CC(=O)N1CC(N2Cc3ccc(-c4cc(O)cc5ccccc45)cc3N(CCOCCOCCOCCNc3ccc4c(c3)C(=O)N(C3CCC(=O)NC3=O)C4=O)C2=O)C1 (stereo not shown) [Compound 40, 5-((2-(2-(2-(2-(3-(1-Acryloylazetidin-3-yl)-7-(3-hydroxynaphthalen-1-yl)-2-oxo-3,4-dihydroquinazolin-1(2H)-yl)ethoxy)ethoxy)ethoxy)ethyl)amino)-2-(2,6-dioxopiperidin-3-yl)isoindoline-1,3-dione] | < 10 | B′ | B′
O=C1CCC(N2Cc3c(cc(F)cc3C3CCN(CCCCCCCOc4cccc(F)c4-c4c(Cl)cc5c(N6CCN(C(=O)c7cnc[nH]7)CC6)ncnc5c4F)CC3)C2=O)C(=O)N1 (stereo not shown) [Compound 41, 3-(4-(1-(7-(2-(4-(4-(1H-Imidazole-5-carbonyl)piperazin-1-yl)-6-chloro-8-fluoroquinazolin-7-yl)-3-fluorophenoxy)heptyl)piperidin-4-yl)-6-fluoro-1-oxoisoindolin-2-yl)piperidine-2,6-dione] | < 10 | B′ | B′
CCC(=O)N1CCN(c2ncnc3c(F)c(-c4c(F)cccc4OCCOCCOCCOCCNc4cccc5c4C(=O)N(C4CCC(=O)NC4=O)C5=O)c(Cl)cc23)CC1 (stereo not shown) [Compound 42, 4-((2-(2-(2-(2-(2-(6-Chloro-8-fluoro-4-(4-propionylpiperazin-1-yl)quinazolin-7-yl)-3-fluorophenoxy)ethoxy)ethoxy)ethoxy)ethyl)amino)-2-(2,6-dioxopiperidin-3-yl)isoindoline-1,3-dione] | ≥ 50 | D′ | D′
O=C1CCC(N2Cc3c(cc(F)cc3C3CCN(CCCCCCCOc4cccc(F)c4-c4c(Cl)cc5c(N6CCN(C(=O)C7CCOCC7)CC6)ncnc5c4F)CC3)C2=O)C(=O)N1 (stereo not shown) [Compound 52, 3-(4-(1-(7-(2-(6-Chloro-8-fluoro-4-(4-(tetrahydro-2H-pyran-4-carbonyl)piperazin-1-yl)quinazolin-7-yl)-3-fluorophenoxy)heptyl)piperidin-4-yl)-6-fluoro-1-oxoisoindolin-2-yl)piperidine-2,6-dione] |  | C′ | B′
O=C1CCC(N2Cc3c(cc(F)cc3C3CCN(CCCCCCCOc4cccc(F)c4-c4c(Cl)cc5c(N6CCN(C(=O)CC7CC7)CC6)ncnc5c4F)CC3)C2=O)C(=O)N1 (stereo not shown) [Compound 53, 3-(4-(1-(7-(2-(6-Chloro-4-(4-(2-cyclopropylacetyl)piperazin-1-yl)-8-fluoroquinazolin-7-yl)-3-fluorophenoxy)heptyl)piperidin-4-yl)-6-fluoro-1-oxoisoindolin-2-yl)piperidine-2,6-dione] |  | B′ | B′
O=C1CCC(N2Cc3c(cc(F)cc3C3CCN(CCCCCCCOc4cccc(F)c4-c4c(Cl)cc5c(N6CCN(C(=O)C7CCOC7)CC6)ncnc5c4F)CC3)C2=O)C(=O)N1 (stereo not shown) [Compound 54, 3-(4-(1-(7-(2-(6-Chloro-8-fluoro-4-(4-(tetrahydrofuran-3-carbonyl)piperazin-1-yl)quinazolin-7-yl)-3-fluorophenoxy)heptyl)piperidin-4-yl)-6-fluoro-1-oxoisoindolin-2-yl)piperidine-2,6-dione] |  | C′ | B′
CCC(=O)N1CCN(c2ncnc3c(F)c(-c4c(F)cccc4OCCCCCN4CCC(c5cc(F)cc6c5CN(C5CCC(=O)NC5=O)C6=O)CC4)c(Cl)cc23)CC1 (stereo not shown) [Compound 60, 3-(4-(1-(5-(2-(6-Chloro-8-fluoro-4-(4-propionylpiperazin-1-yl)quinazolin-7-yl)-3-fluorophenoxy)pentyl)piperidin-4-yl)-6-fluoro-1-oxoisoindolin-2-yl)piperidine-2,6-dione] |  | D′ | C′
CCC(=O)N1CCN(c2nc(NCCC(=O)N(C)C)nc3c(F)c(-c4c(F)cccc4OCCCCCCCN4CCC(c5cc(F)cc6c5CN(C5CCC(=O)NC5=O)C6=O)CC4)c(Cl)cc23)CC1 (stereo not shown) [Compound 86, 3-((6-Chloro-7-(2-((7-(4-(2-(2,6-dioxopiperidin-3-yl)-6-fluoro-1-oxoisoindolin-4-yl)piperidin-1-yl)heptyl)oxy)-6-fluorophenyl)-8-fluoro-4-(4-propionylpiperazin-1-yl)quinazolin-2-yl)amino)-N,N-dimethylpropanamide] |  | B′ | B′
C=C(Cl)C(=O)N1CCN(c2ncnc3c(F)c(-c4c(F)cccc4OCCCCCCCN4CCCC(c5cc(F)cc6c5CN(C5CCC(=O)NC5=O)C6=O)C4)c(Cl)cc23)CC1 (stereo not shown) [Compound 106, 3-(4-(1-(7-(2-(6-Chloro-4-(4-(2-chloroacryloyl)piperazin-1-yl)-8-fluoroquinazolin-7-yl)-3-fluorophenoxy)heptyl)piperidin-3-yl)-6-fluoro-1-oxoisoindolin-2-yl)piperidine-2,6-dione] |  | A′ | A′
C=C(Cl)C(=O)N1CCN(c2ncnc3c(F)c(-c4c(F)cccc4OCCc4ccc(CCN5CCC(c6cc(F)cc7c6CN(C6CCC(=O)NC6=O)C7=O)CC5)cc4)c(Cl)cc23)C[C@H]1CC#N (stereo partly drawn) [Compound 131, 2-((2R)-4-(6-Chloro-7-(2-(4-(2-(4-(2-(2,6-dioxopiperidin-3-yl)-6-fluoro-1-oxoisoindolin-4-yl)piperidin-1-yl)ethyl)phenethoxy)-6-fluorophenyl)-8-fluoroquinazolin-4-yl)-1-(2-chloroacryloyl)piperazin-2-yl)acetonitrile] |  | A′ | A′
C=C(Cl)C(=O)N1CCN(c2nc(OC[C@@H]3CCCN3C)nc3c(F)c(-c4c(F)cccc4OCCCCCCCN4CCC(c5cc6c(cc5F)C(=O)N(C5CCC(=O)NC5=O)C6)CC4)c(Cl)cc23)C[C@H]1CC#N (stereo partly drawn) [Compound 132, 2-((2R)-4-(6-Chloro-7-(2-((7-(4-(2-(2,6-dioxopiperidin-3-yl)-6-fluoro-1-oxoisoindolin-5-yl)piperidin-1-yl)heptyl)oxy)-6-fluorophenyl)-8-fluoro-2-(((S)-1-methylpyrrolidin-2-yl)methoxy)quinazolin-4-yl)-1-(2-chloroacryloyl)piperazin-2-yl)acetonitrile] |  | B′ | B′
